# Results from patent US8952054B2, “Small molecule inhibitors of MUC1 and methods of identifying the same” (Dana-Farber Cancer Institute, Inc., priority 2010, dated 2015).
# Columns and labels:
# [1] = molecular target: xanthine oxidase (Homo sapiens, UniProt P47989); details: cited from earlier work
# [2] = molecular target: T1, MUC1-CD (Homo sapiens, UniProt P15941); experiment: Plate-based MUC1-CD dimerization inhibition assay (primary screening); assay type: biochemical; details: library of Table 1
# T1 construct: the 72 aa cytoplasmic domain (CD); His; made in house
# T1 sequence (P15941 1184-1255 limits assumed): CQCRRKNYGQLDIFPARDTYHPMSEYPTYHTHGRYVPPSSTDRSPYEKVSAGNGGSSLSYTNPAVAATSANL
# Description: FIG. 6—Schematic Illustration of Primary HTS Screening Assay for MUC1-CD Dimerization. MUC1-CD protein was coated on a 96 well plate and then incubated with Biotinylated MUC1-CD that binds to non-biotinylated MUC1-CD protein by dimer formation. Bound biotinylated MUC1-CD protein was detected by incubation with Streptavin-HRP+peroxidase substrate system.
# FIGS. 11A-C—Identification of MUC1-CD dimerization inhibitors in a small molecule screen. (FIG. 11A) Schematic representation of the MUC1-C subunit with the 58 amino acid (aa) extracellular domain (ECD), the 28 aa transmembrane domain (TD) and the 72 aa cytoplasmic domain (CD; SEQ ID NO: 1). The sequence of MUC1-CD is included with highlighting of the CQC dimerization motif. (FIG. 11B) The assay for identification of MUC1-CD dimerization inhibitors is depicted with the following steps: (i) coating of MUC1-CD onto a microplate, (ii) adding soluble biotinylated MUC1-C and […] compound, and (iii) addition of streptavidin-HRP and then peroxide with conversion by HRP to a blue color. The signal is measured by EnVision and proportional to the amount of bound biotin-labeled MUC1-CD.
# FIGS. 12A-D—Apigenin is an inhibitor of MUC1-CD dimerization in vitro and in cells. (FIG. 12A) Structures of apigenin and its analogue baicalein. Using the in vitro screening assay, dimerization of MUC1-CD was assessed in the presence of 100 μM apigenin or 100 μM baicalein each dissolved in 0.1% DMSO. The results (mean±SD of 3 determinations) are expressed as percentage of control dimerization in the presence of DMSO alone. (FIG. 12B) MUC1-CD dimerization was assessed in the presence of the indicated concentrations of apigenin in the in vitro screening assay. […] (FIG. 12C) Soluble MUC1-CD was incubated in the presence of 1% DMSO, 1 mM apigenin or 1 mM baicalein for 1 h at room temperature. Monomers and dimmers were assessed by electrophoresis in a non-reducing gel and immunoblotting with anti-MUC1-C. (FIG. 12D) 293 cells were transiently transfected to express an empty vector or GFP-MUC1-CD and Flag-MUC1-CD. At six hours after transfection, the cells were left untreated, and treated with 75 μM apigenin or baicalein for 3 days. Whole-cell lysates were precipitated with anti-Flag, and the precipitates were immunoblotted with the indicated antibodies.
# Multi-well (96- or 384-well) plates are coated with non-biotinylated MUC1-CD, and biotinylated MUC1-CD is added to the plates to initiate MUC1-CD dimerization or oligomerization. A luminescent substrate for biotin binding is added to the plate, followed by washing. Resulting fluorescence is detected by luminescence detection at absorbance 405 nm. A complete schematic illustration of this assay is described in […]. Test compounds are added at multiple concentrations to the plates and, following incubation and washing, the plates are read for luminescent detection. The formation of MUC1-CD dimers is detected.
# To develop a HTS assay for compounds that inhibit MUC1-CD dimerization, the inventors generated purified His-tagged MUC1-CD protein. They also generated a biotin-labeled His-tagged MUC1-CD protein using a standard biotinylation kit. Biotinylated and non-biotinylated proteins were purified through Nickel columns.
# The inventors coated 96- or 384-well plates with non-biotinylated MUC1-CD protein and added biotinylated MUC1-CD protein to the plates to initiate MUC1-CD/MUC1-CD dimerization or oligomerization. They then added a substrate to the plate which will bind to the biotinylated protein (only at the dimer or oligomer state) and the resultant fluorescence was detected by luminescence detection at absorbance 405 nm. A complete schematic illustration of this assay is described in FIG. 6.
# Individual compounds from the chemical libraries were then added at multiple concentrations (0.01 μM to 100 μM) to the plates and following incubation and washing, the plates were read by luminescence detection at […]. […]
# [3] = cited from earlier work
# [4] = test system: MUC1-expressing cancer cells; experiment: Secondary screen against MUC1-expressing cancer cells in vitro; assay type: cell-based; details: legend: ZR-75-1 breast carcinoma cells, 2 days, anti-MUC1-C immunoblot
# Description: ZR-75-1 breast carcinoma cells were treated with […] Kaempterol for 2 days. Total cell lysates were then analyzed by immunoblotting with anti-MUC1-C antibody (FIG. 17A) or with anti-Actin antibodies (FIG. 17B).
# Initial screens were performed in the presence of compounds at a concentration of 100 μM.
# [5] = test system: hyperammonemia; details: oral administration, ammonium chloride-treated rats; cited from earlier work
# [6] = molecular target: T2, aryl hydrocarbon receptor (AHR) (Rattus norvegicus, UniProt P41738); details: rat liver cytosol, added just before TCDD; cited from earlier work
# T2 construct: Addition of PD98059 to rat liver cytosol just before the addition of TCDD; from tissue; host or cells: rat liver cytosol
# [7] = test system: mitogen-activated protein kinase kinase (MEK); details: cited from earlier work
# [8] = molecular target: T3, His-MUC1-CD (Homo sapiens, UniProt P15941); details: BIAcore analysis, Leng et al., 2007; read-out: dissociation constant (Kd) of MUC1-CD dimers; cited from earlier work
# T3 construct: made in house
# T3 sequence (P15941 1184-1255): T1 sequence (P15941 1184-1255 limits assumed)
# [9] = test system: severe sepsis; details: from about 31% without; cited from earlier work
# xanthine oxidase, sequence (P47989 whole entry, species assumed): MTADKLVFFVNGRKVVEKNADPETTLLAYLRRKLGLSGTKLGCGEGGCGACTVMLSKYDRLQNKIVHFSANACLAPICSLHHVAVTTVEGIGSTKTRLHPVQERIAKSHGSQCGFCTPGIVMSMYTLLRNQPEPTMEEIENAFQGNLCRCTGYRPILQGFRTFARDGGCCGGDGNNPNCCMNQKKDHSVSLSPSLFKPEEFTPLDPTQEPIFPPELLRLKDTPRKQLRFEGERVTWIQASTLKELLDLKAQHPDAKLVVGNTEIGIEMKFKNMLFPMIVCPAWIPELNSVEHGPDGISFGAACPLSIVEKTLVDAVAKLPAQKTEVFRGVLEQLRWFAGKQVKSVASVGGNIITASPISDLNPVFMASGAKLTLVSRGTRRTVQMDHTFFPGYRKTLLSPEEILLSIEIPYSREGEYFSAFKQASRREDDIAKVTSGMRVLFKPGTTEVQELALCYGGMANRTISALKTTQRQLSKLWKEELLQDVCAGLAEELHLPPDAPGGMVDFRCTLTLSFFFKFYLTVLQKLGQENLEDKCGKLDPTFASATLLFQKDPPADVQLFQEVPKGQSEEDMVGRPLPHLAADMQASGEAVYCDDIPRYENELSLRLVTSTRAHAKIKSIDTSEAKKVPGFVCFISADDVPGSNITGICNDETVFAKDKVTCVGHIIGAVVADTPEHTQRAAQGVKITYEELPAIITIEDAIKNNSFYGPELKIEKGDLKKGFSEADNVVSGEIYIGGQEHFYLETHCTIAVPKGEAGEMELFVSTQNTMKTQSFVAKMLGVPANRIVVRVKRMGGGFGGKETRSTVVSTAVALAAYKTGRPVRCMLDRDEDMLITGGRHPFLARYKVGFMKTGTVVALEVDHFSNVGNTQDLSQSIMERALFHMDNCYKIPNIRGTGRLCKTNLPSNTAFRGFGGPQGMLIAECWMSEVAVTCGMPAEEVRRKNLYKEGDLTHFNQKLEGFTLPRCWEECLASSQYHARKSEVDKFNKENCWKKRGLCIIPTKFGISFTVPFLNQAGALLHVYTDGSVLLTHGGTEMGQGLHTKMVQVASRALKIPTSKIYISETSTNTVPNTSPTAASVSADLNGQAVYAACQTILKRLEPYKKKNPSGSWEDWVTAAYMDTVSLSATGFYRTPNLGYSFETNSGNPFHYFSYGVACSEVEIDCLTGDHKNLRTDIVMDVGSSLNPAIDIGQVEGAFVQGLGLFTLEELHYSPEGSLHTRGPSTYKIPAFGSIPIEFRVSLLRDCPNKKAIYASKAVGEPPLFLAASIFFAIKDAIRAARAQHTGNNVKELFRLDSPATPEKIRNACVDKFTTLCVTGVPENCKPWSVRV
# T2 sequence (P41738 10-853): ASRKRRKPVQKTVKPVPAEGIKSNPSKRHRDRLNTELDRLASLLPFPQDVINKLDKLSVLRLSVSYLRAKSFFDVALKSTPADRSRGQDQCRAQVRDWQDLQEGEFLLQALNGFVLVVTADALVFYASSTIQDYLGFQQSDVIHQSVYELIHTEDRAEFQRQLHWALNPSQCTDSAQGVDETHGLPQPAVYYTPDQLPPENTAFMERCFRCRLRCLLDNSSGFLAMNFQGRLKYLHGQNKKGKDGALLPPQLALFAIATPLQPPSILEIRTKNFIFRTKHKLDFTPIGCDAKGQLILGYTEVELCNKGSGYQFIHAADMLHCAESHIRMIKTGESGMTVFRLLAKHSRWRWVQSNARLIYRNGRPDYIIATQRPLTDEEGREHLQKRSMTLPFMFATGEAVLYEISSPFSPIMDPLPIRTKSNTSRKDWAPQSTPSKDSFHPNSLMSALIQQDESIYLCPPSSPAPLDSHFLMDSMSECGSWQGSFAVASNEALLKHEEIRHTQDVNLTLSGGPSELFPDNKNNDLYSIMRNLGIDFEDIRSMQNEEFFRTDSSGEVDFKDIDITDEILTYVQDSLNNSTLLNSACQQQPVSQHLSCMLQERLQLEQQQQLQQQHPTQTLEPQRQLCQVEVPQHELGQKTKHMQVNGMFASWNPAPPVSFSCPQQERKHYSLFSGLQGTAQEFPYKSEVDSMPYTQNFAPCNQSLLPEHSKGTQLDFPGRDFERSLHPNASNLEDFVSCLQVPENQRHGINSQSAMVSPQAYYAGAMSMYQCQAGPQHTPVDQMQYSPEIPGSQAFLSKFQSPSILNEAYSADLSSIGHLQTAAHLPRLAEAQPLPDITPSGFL
compound,measurement,setting,value
O=c1c(O)c(-c2ccc(O)c(O)c2)oc2cc(O)ccc12 [Fisetin],inhibition of xanthine oxidase,[1],inhibit xanthine oxidase
same,initial library screen result,[2],MUC1 dimerization inhibitory compounds
O=c1c(O)c(-c2ccc(O)cc2)oc2cc(O)cc(O)c12 [Kaempferol],solubility in organic solvents,[3]; hot ethanol and diethyl ether,soluble in hot ethanol and diethyl ether
same,solubility in water,[3]; water,slightly soluble in water
same,inhibition (FIGS. 17A-B),[4],showed inhibition
"O=c1c(O)c(-c2ccc(O)cc2O)oc2cc(O)cc(O)c12 [Morin, 3,5,7,2′,4′-pentahydroxyflavone]",initial library screen result,[2],MUC1 dimerization inhibitory compounds
same,"ammonia, urea, lipid peroxidation",[5],"significant reduction in ammonia, urea, lipid peroxidation"
"COc1cccc(-c2cc(=O)c3ccccc3o2)c1N [PD98059, 2-(2′-amino-3′-methoxyphenyl)-oxanaphthalen-4-one]",TCDD binding to AHR,[6],suppressed TCDD binding
same,initial library screen result,[2],MUC1 dimerization inhibitory compounds
same,inhibition of MEK,[7],potent inhibitor
MUC1-CD: 72-amino acid MUC1 cytoplasmic domain (SEQ ID NO:1),Kd,[8],33 nM
drotrecogin alfa,mortality,[9],about 25%
